The solubility is the dissolved amount per volume that the medium holds.

≈ marks a conversion by molar mass, not a printed value. Bounds are passed on as bounds.

A short description of the data set: Solubility of HAR7 in various solvents and solvent systems. Format: physicochemical. The method, then: In addition to testing for water solubility, one of the analogs of the present invention, HAR7, was tested for solubility in various other solvents and solvent mixtures, to determine the system which provides the greatest solubility for the analog. The results of those solubility experiments are shown below in Table 2:
The solubility of HAR7 in various solvents and solvent systems was measured using one of two experimental methods, depending on the conditions and solvents used.
First, an evaporation method was used in which an excess quantity of HAR7 was added to the solvent of choice. The mixture was finely divided using ultrasonic vibration in order to dissolve the material thoroughly. The resulting mixture was filtered and the solution was evaporated to dryness using a rotary evaporator.
Second, a spectrophotometric method was used in which an excess quantity of HAR7 was added to the solvent of choice. The mixture was finely divided using ultrasonic vibration in order to dissolve the maximum amount of solid. The resulting suspension was filtered through a 0.45 μm nylon filter, and the clear solution was diluted in the same solvent and its concentration was measure spectrophotometrically, based upon an extinction coefficient of 17000 at 258 nm.

As to `CC[C@@]1(O)C(=O)OCc2c1cc1n(c2=O)Cc2c-1nc1ccccc1c2CO[C@@H]1C=C[C@H](O)[C@@H](CO)O1` [HAR7, 7-[2,3-dideoxy-α-D-erythro-hex-2-enopyranosyl]-oxymethylcamptothecin], the solubility is, setting by setting: (0.1 m citrate buffer, aqueous buffer) 24 µg/mL (≈ 47.4 µM); (0.2 m acetate buffer, aqueous buffer) 23 µg/mL (≈ 45.4 µM); (0.2 m na2hpo4 buffer, aqueous buffer) 30 µg/mL (≈ 59.2 µM); (0.2 m nah2po4 buffer, aqueous buffer) 32 µg/mL (≈ 63.2 µM); (2 m acetate buffer, aqueous buffer) 29 µg/mL (≈ 57.3 µM); (4:1:5 pg/ethanol/dsw, organic solvent or mixture) 960 µg/mL (≈ 1900 µM). Also, the solubility is, setting by setting: (4:1:5 pg/ethanol/saline, organic solvent or mixture) 893 µg/mL (≈ 1760 µM); (4:1:5 pg/ethanol/water, organic solvent or mixture) 740 µg/mL (≈ 1460 µM); (5% ethanol/dsw, organic solvent or mixture) 177 µg/mL (≈ 349 µM); (5% ethanol/water, organic solvent or mixture) 80 µg/mL (≈ 158 µM); (10% ethanol/water, organic solvent or mixture) 143 µg/mL (≈ 282 µM); (20% ethanol/water, organic solvent or mixture) 380 µg/mL (≈ 750 µM). The solubility was greater than 5000 µg/mL (organic solvent or mixture, PEG 300 (Polyethylene Glycol 300)) and 1980 µg/mL (≈ 3920 µM) (pure ethanol, organic solvent or mixture).

The values are drawn from US5932709A (University of Michigan, priority 1997, dated 1999).
